Assay results published in patent US20250206789A1, “ZINC FINGER DEGRON SEQUENCES” (STICHTING HET NEDERLANDS KANKER INSTITUUT-ANTONI VAN …, priority 2022, published 2025).

Assays:
Primary human T cells = assay: Cytokine production and degranulation of CDK4 TCR T cells with Zap70-Siglec11-degron CRASH-IT switch co-cultured with NKIRTIL006 melanoma cells, lenalidomide; format: cell-based; conditions: for cytokine production at very low lenalidomide concentration: 5 nM lenalidomide, as compared to double hybrid degron containing CRASH-IT switch
Description: FIG. 5: SynFingers fusion proteins enable sensitive control of immune cell functions. A subset of SynFingers identified in the SynFinger library screen were individually validated. (A-H) Primary human T cells were modified with the HLA class I restricted CDK4 TCR plus a Zap70-Siglec11-degron CRASH-IT switch, in which the degron sequence contains the parental zinc finger degron (double hybrid degron depicted in FIGS. 1 and 3), or the parental zinc finger degron with the following mutations: G14N/K21A, G14M/N15R, L17I/K21L, E4R/Q12L, Q12R/K13T, or Q12R/K13V. As a control, primary human T cells modified with the HLA class I restricted CDK4 TCR plus vector control were used. Cells were pretreated with 5 nM lenalidomide or left untreated. Data depict intracellular IFNγ, IL2, TNFα, and cell surface LAMP1 expression of CDK4 TCR+, EGFP intermediate, CD8+ T cells upon co-culture with NKIRTIL006 melanoma cells in the continued absence (E-H) or continued presence of 5 nM lenalidomide (A-D). Dashed horizontal lines indicate cytokine production and degranulation levels of cells modified with a CRASH-IT switch containing the parental zinc finger degron. Error bars represent standard deviation (n=2). SynFinger and vector control groups were compared to the parental zinc finger group using a one-sided t test: *=p<0.05, **=p<0.01, ***=p<0.001, ****=p<0.0001, n.s.=not significant. Data are representative of two independent experiments.
FIG. 6: SynFinger containing CRASH-IT switches enable restoration of cytokine production and degranulation at lower IMID concentrations as compared to zinc finger degrons not according to the invention. (A-D) Primary human T cells modified with the HLA class I restricted CDK4 TCR plus a Zap70-Siglec11-degron CRASH-IT switch, in which the degron sequence contains prior art zinc finger degrons (single hybrid, dual zinc finger degron depicted in FIG. 1), the parental zinc finger degron (double hybrid degron depicted in FIGS. 1 and 3), or the parental zinc finger degron with the following mutations: G14N/K21A, L17I/K21L, or Q12R/K13V, were pretreated with the indicated concentrations of lenalidomide or left untreated. Data depict intracellular IFNγ, IL2, TNFα, and cell surface LAMP1 expression of CDK4 TCR+, EGFP intermediate, CD8+ T cells upon co-culture with NKIRTIL006 melanoma cells in the continued presence or absence of the indicated concentration of lenalidomide (A-D). Error bars represent standard deviation (n=3). Data are representative of two independent experiments. (E) Table depicts EC50Lenalidomide (nM) values of cells in (A-D), and EC50 fold change between the prior art zinc finger degron and a SynFinger containing the Q12R/K13V substitutions.
FIG. 7: Combination of dual substitution sets can further increase lenalidomide sensitivity of SynFinger degron. (A-D) Primary human T cells modified with the HLA class I restricted CDK4 TCR plus a Zap70-Siglec11-degron CRASH-IT switch, in which the degron sequence contains the parental zinc finger degron (double hybrid degron depicted in FIGS. 1 and 3), or the parental zinc finger degron with the following mutations: G14N/K21A, Q12R/K13V, or Q12R/K13V/G14N/K21A, were pretreated with the indicated concentrations of lenalidomide or left untreated. Data depict intracellular IFNγ, IL2, TNFα, and cell surface LAMP1 expression of CDK4 TCR+, EGFP intermediate, CD8+ T cells upon co-culture with NKIRTIL006 melanoma cells in the continued presence or absence of the indicated concentration of lenalidomide (A-D). Error bars represent standard deviation (n=3). Data are representative of two independent experiments.
To test whether the SynFingers that show an improved drug sensitivity in this Jurkat SynFinger library screen also led to an improved sensitivity to low IMID concentrations when expressed in primary human T cells, human peripheral blood T cells were modified to express the CDK4 TCR and indicated SynFinger containing CRASH-IT switch variants (FIG. 5). […]

Jurkat cells = assay: SynFinger library screen: CD69 expression of CRASH-IT (Zap70-PD1-degron) transduced Jurkat cells with or without lenalidomide, enrichment index from NGS reads; format: cell-based; set-up: key to EI / EI index (enrichment index): enrichment index; low EI = SynFinger with desired properties; conditions: for EI index (enrichment index): Table 6, dual substitutions in first hybrid zinc finger domain, Jurkat, 50 nM lenalidomide vs mock, CD69-HI/CD69-LO, low EI = desired
Description: […] Jurkat cells were transduced with the SynFinger library (SynFinger containing CRASH-IT switches) at a 12.8% transduction efficiency and sorted for high EGFP expression to enrich transduced cells. For quality control of the SynFinger transduced Jurkat cells, SynFinger sequences were amplified and analyzed by NGS. 10 randomly selected SynFinger encoding DNA sequences or DNA sequences encoding the same SynFinger amino acid sequences but contain 2 nucleotide mismatches due to alternative codon usage were used to assess ability to distinguish true SynFinger sequences from noise in the NGS data. 10/10 SynFinger encoding full-nucleotide sequence match sequences were observed within NGS data whereas the 2 nucleotide mismatch containing sequences were not detected.
Jurkat cells expressing the SynFinger library were treated with 50 nM lenalidomide (a suboptimal dose that activates only ˜50% of cells expressing a CRASH-IT switch containing the parental double hybrid degron in Jurkat cells, as compared to a maximally effective 1000 nM lenalidomide dose) or were mock treated for 24 hours, and subsequently activated with anti-CD3/anti-CD28 antibodies in the presence or absence of 50 nM lenalidomide for 5 hours. Afterwards, cells were stained with IR dye (1:400) and anti-CD69-PE (1:200). Cells were sorted for live (IR dye negative), EGFP high end CD69 high (top 5%) or CD69 low (bottom 5%) expression using Aria Fusion cytometers.
Subsequently, cells were washed with PBS, and cell pellets were frozen at −20° C. until DNA extraction. Genomic DNA was isolated using the DNeasy Blood & Tissue Kit (Qiagen) according to the manufacturer's instructions, using 5×10^6 cells per column. DNA was eluted in 22 μl RNAse free water. Deep sequencing adapters and indexes were added to SynFinger encoding DNA sequences using PCR amplification. Briefly, 3 μg genomic DNA (20 μl), indexed forward and reverse primers (10 μM, 2.5 μl each) and 25 μl NEBNext® High-Fidelity 2×PCR Master Mix were added to the PCR reaction. An optimized PCR reaction (98° C. for 30 s, (98° C. for 10 s, 56° C. for 10 s, 72° C. for 5 s)×25 cycles, 72° C. for 3 min was performed using Eppendorf PCR cyclers.
Indexed PCR products were run on agarose gel, relative DNA concentrations were estimated by measuring band intensity, and 12 indexed PCR reaction products were mixed per MiSeq chip. To increase sequence diversity, samples were mixed with 25% PhiX DNA. In total, 2 MiSeq chips were used (100 bp, single read). To distinguish genuine SynFinger sequences from sequencing errors, results were filtered using a reference list of actual sequences used in SynFinger library design (100% codon match). Sequences with a very low number of reads (sum of all samples below 500 reads) were excluded from analysis.
To identify SynFingers that improve sensitivity of CRASH-IT switches towards lenalidomide while preserving or improving stringency of switch mediated control of T cell activation in the absence of lenalidomide, an enrichment index (EI) value was calculated for each sequence as described below, and SynFingers were ranked according to their EI, with a low EI indicating a SynFinger with desired properties.
CD69-HI and […] read counts from top 100 SynFingers were compared with read counts from the parental double hybrid degron using a two-sided Fisher's exact test to determine enrichment of CD69-HI cells in the presence of lenalidomide and enrichment of CD69-LO cells in the absence of lenalidomide.
To further improve the sensitivity of double hybrid degron towards IMiDs, we performed a high throughput screen using a library of ˜50,200 CRASH-IT variants that encode either single or double amino acid substitutions at the indicated positions of the first hybrid zinc finger sequence, thereby changing 18 amino acids of this zinc finger into any amino acid except cysteine (FIG. 3). […]

Row | Substance | EI index (enrichment index) (Jurkat cells) | other results
1 | LQCEICGFTCRRTGNLLRHIKLH [SEQ ID NO: 2] | – | cytokine production at very low lenalidomide concentration (Primary human T cells): improved cytokine production
2 | LQCEICGFTCRRVNNLLRHIALH [Q12R/K13V/G14N/K21A, SynFinger degron with quadruple substitutions] | – | sensitivity of the SynFinger towards lenalidomide (Primary human T cells; as compared to SynFinger degrons with Q12R/K13V or G14N/K21A): improved the sensitivity
3 | LQCRICGFTCRLKGNLLRHIKLH [SEQ ID NO: 1] | – | cytokine production at very low lenalidomide concentration (Primary human T cells): improved cytokine production
4 | LQCEICGFTCRQKNNLLRHIALH [SEQ ID NO: 6] | – | cytokine production at very low lenalidomide concentration (Primary human T cells): improved cytokine production
5 | LQCEICGFTCRQKGNLIRHILLH [SEQ ID NO: 14] | – | cytokine production at very low lenalidomide concentration (Primary human T cells): improved cytokine production
6 | 5 (LQCEICGFTCRQVKNLLRHIKLH) [compound 5] | 0.004648 | –
7 | 47 (LQCEICGFTCRQKGTLLRHIKRH) [compound 47] | 0.02209 | –
8 | 4 (LQCEICGFTCRQKMRLLRHIKLH) [compound 4] | 0.00411 | –
9 | 17 (LQCIICGFTCRQKGNLLKHIKLH) [compound 17] | 0.0108 | –
10 | 27 (LQCEICGFTCVQKGNLLRHIALH) [compound 27] | 0.01487 | –
11 | 19 (LQCEICGFTCRLKGNLLRHILLH) [compound 19] | 0.01177 | –
12 | 16 (LQCEICGFTCRRKGNLYRHIKLH) [compound 16] | 0.0107 | –
13 | 23 (LQCEICGFTCRKKGALLRHIKLH) [compound 23] | 0.0133 | –
14 | 59 (LQCEICGFTCRLKGNLLLHIKLH) [compound 59] | 0.02682 | –
15 | 21 (LQCEICGFSCRQKGNLRRHIKLH) [compound 21] | 0.01255 | –
16 | 24 (LQCEICGFTCRQKHNLLRHIKNH) [compound 24] | 0.01351 | –
17 | 82 (LQCMICGFTCRQKGNLMRHIKLH) [compound 82] | 0.03754 | –
18 | 76 (LQCQICGFTCRRKGNLLRHIKLH) [compound 76] | 0.03445 | –

Row | Substance | EI index (enrichment index) (Jurkat cells) | other results
19 | 31 (LQCEICGFTCRQKTRLLRHIKLH) [compound 31] | 0.01686 | –
20 | 80 (LQCEICGFTCRQPGNLLRHYKLH) [compound 80] | 0.03685 | –
21 | 90 (LQCEICGFTCRQHGVLLRHIKLH) [compound 90] | 0.04107 | –
22 | 11 (LQCPICGFTCRQKSNLLRHIKLH) [compound 11] | 0.008068 | –
23 | 84 (LQCEICGFTCRQKGKYLRHIKLH) [compound 84] | 0.03903 | –
24 | 33 (LQCDICGFTCRQKGNLLLHIKLH) [compound 33] | 0.01705 | –
25 | 77 (LQCEICGFTCRKRGNLLRHIKLH) [compound 77] | 0.03531 | –
26 | 26 (FQCEICGFTCRQKVNLLRHIKLH) [compound 26] | 0.01478 | –
27 | 98 (LQCEICGFKCRQKGNLLRHIKRH) [compound 98] | 0.04302 | –
28 | 37 (FQCEICGFTCRQKHNLLRHIKLH) [compound 37] | 0.01787 | –
29 | 65 (LQCEICGFTCRQKGNLLRHIFKH) [compound 65] | 0.02989 | –
30 | LQCEICGFTCRQKMRLLRHIKLH [SEQ ID NO: 4] | – | cytokine production at very low lenalidomide concentration (Primary human T cells): improved cytokine production
31 | 71 (LQCEICGFTCRKKNNLLRHIKLH) [compound 71] | 0.03227 | –
32 | 88 (LQCEICGFRCRQKGNLLRHIKKH) [compound 88] | 0.03947 | –
33 | 40 (LQCEICGFTCKQKKNLLRHIKLH) [compound 40] | 0.01915 | –
34 | LQCEICGFTCRRVGNLLRHIKLH [SEQ ID NO: 9] | – | cytokine production at very low lenalidomide concentration (Primary human T cells): improved cytokine production; EI (Jurkat cells; Jurkat SynFinger screen): 0.006877
35 | 18 (LQCAICGFTSRQKGNLLRHIKLH) [compound 18] | 0.01133 | –
36 | 20 (LQCKICGFTCRVKGNLLRHIKLH) [compound 20] | 0.01216 | –
